# Key:
# RL-7 = test: Apoptosis FACS in leukaemia cell line RL-7; type: cell-based; conditions: RL-7, 0.2 μM gliotoxin, 24 h
# Experimental: FIG. 7: (A) The apoptotic activity of gliotoxin on further B-CLL patient samples (CLL4-CLL8) is illustrated. The (non-Notch2-associated) leukaemia cell lines (or the leukaemia cell lines not characterised by ligand-independent Notch2 fragments) Jurkat (T-ALL), SH1 (hairy cell carcinoma), RL-7 and K562 (CML) are resistant to a treatment with 0.2 μM (corresponding to 60 ng/ml) of gliotoxin. Cells were incubated for 24 h+/−gliotoxin, and the percentage of apoptotic cells (probidium-iodide+/annexinV+) was determined by means of FACS analysis. In none of the 4 non-Notch2-associated cell lines indicated, the application of 0.2 μM of gliotoxin led to a significant induction of apoptosis within 24 hours. The cytotoxic effect of Gliotoxin correlates with the Notch2 activity in leukemias. (B) Corresponding EMSA showing the activity of Notch2 in B-CLL cells and in leukemic cell lines (Jurkat, SH1, RL7, and K562).
# [1] = test system: Hep3B (hepatocellular carcinoma); test: Cell count analysis Hep3B; type: cell-based, human; conditions: 200 nM gliotoxin, 72 h
# Experimental: (§1) FIG. 8 a-d: Effects of gliotoxin on cell counts of various human tumour cell lines in vitro. Cell counts of a) hepatocellular carcinoma cell lines HepG2, Huh7, SNU398, Hep3b, HeLa (cervix) and the cholangiocarcinoma cell line NEC as well as b) the pancreatic cancer cell line Panc-1 and the melanoma cell lines d) MelJuso, Meljuso-Bcl-2 (+) and 607B after 72 h treatment with 200 nM gliotoxin; c-d) Cell count dose range experiments with c) pancreatic carcinoma cell lines Panc-1 and MiaPaCa as well as melanoma cell lines MelJuso, 518A2 and 607B using 25, 50 100 and 200 nM gliotoxin for 24 h. All data are given relative to control ±standard deviation.
# (§2) Tumour cells were seeded at a density of 10,000 cells/well in 24-well plates. 24 h after seeding, medium containing gliotoxin was added to yield desired concentrations of gliotoxin. At time points indicated, culture medium was removed by suction. Adherent cells were washed with DPBS (Cambrex, Verviers, Belgium) and incubated with trypsin (Gibco) at 37° C. Detached cells were transferred to test tubes containing Cellpack isotonic fluid (Sysmex Europe, Bornbarch, Germany) and counted with a Coulter Z1 electronic cell counter (Beckman Coulter, Bedford, UK).
# 518A2 (melanoma) = test: Cell count analysis 518A2; type: cell-based, human
# Experimental: as §1, §2
# [2] = test system: MiaPaCa (pancreas carcinoma); test: Cell count analysis MiaPaCa; type: cell-based, human; conditions: MiaPaCa, 25, 50, 100 and 200 nM, 24 h
# Experimental: as §1, §2
# [3] = test system: Panc-1 (pancreatic cancer); test: Apoptosis flow cytometry (Annexin V / 7-AAD) Panc-1; type: cell-based, human; conditions: Panc-1, 200 nM gliotoxin, 24 h
# Experimental: FIG. 10 a-b: Effects of gliotoxin on Notch2 regulation and apoptosis. The melanoma cell line 518A2 (A) and the pancreatic cancer cell line Panc-1 (B) were treated with 200 nM gliotoxin or vehicle control for 24 h Notch2 activity was analysed by band shift assay. Apoptosis was measured as annexin V and 7-AAD double positivity by FACS. Data are given as percentage of apoptotic cells ±standard deviation.
# Tumour cells were seeded at a density of 50,000 cells/well in 6 well plates. 24 h after seeding, medium containing gliotoxin was added to yield desired concentrations of gliotoxin. After further 24 h cells were harvested, counted and washed twice with PBS. Then, 100,000 cells were resuspended in 100 μl binding buffer and stained with Annexin V-PE and 7-AAD (both Becton Dickinson, N.J., USA) according to manufacturer's recommendations. After 20 minutes incubation time at room temperature in the dark, 400 μl binding buffer was added and immediately analyzed on a FACScalibur flow cytometer using CellQuest software (both Becton Dickinson, N.J., USA)
# 518A2 melanoma xenograft = test: 518A2 melanoma nude mouse xenograft model; type: in vivo
# From the text: FIG. 9: Effects of gliotoxin in a 518A2 melanoma nude mouse xenograft model. 518 A2 cells (9×10^6) were inoculated into the lower right and left flank of each mouse. […] The flexible dose and treatment schedule of each group are given in the squares next to each group in the figure. All data are given as mean tumour volumes ±95% CI. The dotted arrows indicate a significant decrease of tumour volume (Wilcoxon matched pairs test, P<0.05) within Group 2 and Group 4 three days after application of 5 mg-0-2.5 mg of gliotoxin. It was shown that even at late administrations with progressed tumours gliotoxin administration is effective group 4 (ip administration at day 25).
# Pathogen-free, 4-6 week old, female athymic nude mice (Harlan Winkelmann, Borchen, Germany) were housed under sterile conditions and treated according to the regulations of the local animal welfare committee. Hundred μl of a tumour cell suspension in DPBS containing 9×10^6 518A2 cells were inoculated into the lower right and left flank of each mouse. When mean tumour volume reached approximately 75 mm^3 (based on caliper measurements), mice (n=8/control group, n=6/treatment group) were randomly assigned to treatment groups and received one of the following treatment regimens:
# Control (2% DMSO), Group 1 (start dose 1 mg/kg i.p.), Group 2 (start dose 5 mg/kg i.v.), and Group 3 (start dose 5 mg ip) and Group 4 (start dose 7 mg s.c.).
# Flexible explorative dosing schedule was used in this in vivo trial: At baseline, all treatment groups received their respective start dose to estimate immediate toxicity of gliotoxin. Beginning with day 4:
# Group 1 received 1 mg/kg daily including day 19.
# Group 2 received 5 mg i.v. at day 4 and day 7 followed by 5 mg-0-2.5 mg ip at day 11
# Group 3 received 5 mg/kg i.p. once weakly including day 18.
# Group 4 remained untreated until day 25 and received then 5 mg-0-2.5 mg once only. The trial was stopped when control mice reached a mean tumour volume of 1000 mm^3.
# In the xenograft melanoma model, tumour volume of each group is given as mean±95% confidence interval. The anti-tumour effect of gliotoxin was described as tumour volume of treatment group/tumour volume of control group×100 (T/C).
# [4] = test system: B1 B-cells (LPS responder); conditions: mice, single administration of 100 μg of gliotoxin; cited from earlier work
smiles,measurement,setting,value
"CN1C(=O)[C@]23CC4=CC=C[C@H](O)[C@H]4N2C(=O)[C@@]1(CO)SS3 [gliotoxin, [3R-(3α,5aβ,6β,10aα)]-2,3,5a,6-tetrahydro-6-hydroxy-3-(hydroxymethyl)-2-methyl-10H-3,10a-epi-dithiopyrazino[1,2-a]indol-1,4-dion]",induction of apoptosis (probidium-iodide+/annexinV+),RL-7,resistant
same,mean reduction of cell numbers compared to vehicle treated controls,[1],88%
same,effect on cell count,"518A2 (melanoma); 518A2, 200 nM gliotoxin, 72 h",very effective
same,cytotoxicity in dose range experiment (cell count),"518A2 (melanoma); 518A2, 25, 50, 100 and 200 nM, 24 h",clear dose dependent cytotoxicity
same,cytotoxicity in dose range experiment (cell count),[2],clear dose dependent cytotoxicity
same,apoptotic cells (annexin V and 7-AAD double positive),[3],47%
same,T/C (tumour volume of treatment group/control group×100),"518A2 melanoma xenograft; Group 1, 1 mg/kg i.p. daily until day 19, day 21",37%
same,T/C (tumour volume of treatment group/control group×100),"518A2 melanoma xenograft; Group 2, 3×5 mg iv within 7 days then 1×5 mg-0-2.5 mg ip day 11, day 21",32%
same,mean tumour volume,"518A2 melanoma xenograft; Group 2, day 11 (before application of 5 mg-0-2.5 mg)",115 mm^3
same,mean tumour volume,"518A2 melanoma xenograft; Group 2, day 15 (after application of 5 mg-0-2.5 mg at day 11)",83 mm^3
same,T/C (tumour volume of treatment group/control group×100),"518A2 melanoma xenograft; Group 3, 5 mg/kg i.p. weekly until day 18, day 21",49%
same,T/C (tumour volume of treatment group/control group×100),"518A2 melanoma xenograft; Group 4, 5 mg-0-2.5 mg once at day 25, day 32",23%
same,toxicity after subcutaneous application,"518A2 melanoma xenograft; Group 4, 7 mg/kg s.c. start dose, nude mice",severe local toxicity
same,mean tumour volume,"518A2 melanoma xenograft; Group 4, day 25 (before application of 5 mg-0-2.5 mg)",576 mm^3
same,mean tumour volume,"518A2 melanoma xenograft; Group 4, day 28 (after application of 5 mg-0-2.5 mg at day 25)",218 mm^3
same,T/C (tumour volume of treatment group/control group×100),"518A2 melanoma xenograft; Group 4, single 7 mg/kg s.c. start dose, then untreated, day 25",92%
same,effect on B1 B-cells (LPS responder),[4],complete loss of B1 B-cells

# From US7981878B2, “Tumor treatment with gliotoxin derivatives” (priority 2005, dated 2011)
